# Measured values reported in patent US20020098248A1, “Method for treating and/or preventing infections caused by methicillin-resistant Staphylococcus aureus” (priority 2000, published 2002).
# Tested on: Staphylococcus, particularly MRSA
# Assay: Examination of catechin for antimicrobial effect
# Type: cell-based
# Conditions: catechin only, even if it has a high concentration
substance,measurement,value
catechin,"antimicrobial effect against Staphylococcus, particularly MRSA",does not provide a desired antimicrobial effect
